Our source for the IC50 and Selectivity ratio values is patent US20190263796A1, “LIM KINASE INHIBITORS, PHARMACEUTICAL COMPOSITION AND METHOD OF USE IN LIMK-MEDIATED DISEASES” (CELLIPSE, priority 2016, published 2019).

Like-named read-outs stand apart in the source and are kept apart here.

The target in assay [1] is LIMK1(h) (Homo sapiens, UniProt P53667). The assay can be described thus: LIMK1 kinase assay (Eurofins Panlabs, radiometric). Format: biochemical. Also on record: purchased Eurofins Panlabs Inc. (contract assay service). Particulars: 15 μM ATP, read-out: IC50 LIMK1.
LIMK1(h), sequence (P53667 whole entry): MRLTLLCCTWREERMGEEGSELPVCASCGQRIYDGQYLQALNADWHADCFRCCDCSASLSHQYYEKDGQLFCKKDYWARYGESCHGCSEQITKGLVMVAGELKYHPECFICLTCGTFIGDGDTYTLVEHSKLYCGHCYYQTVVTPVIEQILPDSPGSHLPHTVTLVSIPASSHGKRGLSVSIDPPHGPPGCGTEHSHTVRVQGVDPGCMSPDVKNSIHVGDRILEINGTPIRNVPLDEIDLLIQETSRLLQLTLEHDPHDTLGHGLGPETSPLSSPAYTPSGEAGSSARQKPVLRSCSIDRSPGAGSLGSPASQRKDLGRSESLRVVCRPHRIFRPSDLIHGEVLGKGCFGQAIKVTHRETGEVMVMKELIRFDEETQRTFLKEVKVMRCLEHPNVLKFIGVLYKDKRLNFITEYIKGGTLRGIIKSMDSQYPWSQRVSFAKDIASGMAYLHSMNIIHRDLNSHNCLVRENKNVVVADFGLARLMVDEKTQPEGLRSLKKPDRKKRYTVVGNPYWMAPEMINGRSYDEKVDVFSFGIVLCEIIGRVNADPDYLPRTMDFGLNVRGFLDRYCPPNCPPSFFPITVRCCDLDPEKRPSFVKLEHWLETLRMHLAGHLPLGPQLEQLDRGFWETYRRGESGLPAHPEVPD
Method: Compounds were tested in a LIMK1 assay performed by Eurofins Panlabs Inc. LIMK1 (h) is incubated with 8 mM MOPS pH 7.0, 0.2 mM EDTA, 0.6 mg/mL cofilin, 10 mM Magnesium acetate and [gamma-33P]-ATP. The reaction is initiated by the addition of the Mg/ATP mix. After incubation for 40 min at room temperature, the reaction is stopped by the addition of phosphoric acid to a concentration of 0.5%. […] IC50 LIMK1 is then determined.
Assay [2] deals with B-Raf(h) (Homo sapiens, UniProt P15056). The assay can be described thus: B-Raf kinase assay (Eurofins Panlabs, radiometric). Particulars: Table 8; for IC50: 120 μM ATP, read-out: IC50 B-Raf; for Selectivity ratio: IC50 B-Raf (nM) divided by IC50 LIMK1 (nM). Format: biochemical. Also noted: purchased Eurofins Panlabs Inc. (contract assay service). As for the experimental part: IC50 B-Raf is then determined.
B-Raf(h), sequence (P15056 whole entry): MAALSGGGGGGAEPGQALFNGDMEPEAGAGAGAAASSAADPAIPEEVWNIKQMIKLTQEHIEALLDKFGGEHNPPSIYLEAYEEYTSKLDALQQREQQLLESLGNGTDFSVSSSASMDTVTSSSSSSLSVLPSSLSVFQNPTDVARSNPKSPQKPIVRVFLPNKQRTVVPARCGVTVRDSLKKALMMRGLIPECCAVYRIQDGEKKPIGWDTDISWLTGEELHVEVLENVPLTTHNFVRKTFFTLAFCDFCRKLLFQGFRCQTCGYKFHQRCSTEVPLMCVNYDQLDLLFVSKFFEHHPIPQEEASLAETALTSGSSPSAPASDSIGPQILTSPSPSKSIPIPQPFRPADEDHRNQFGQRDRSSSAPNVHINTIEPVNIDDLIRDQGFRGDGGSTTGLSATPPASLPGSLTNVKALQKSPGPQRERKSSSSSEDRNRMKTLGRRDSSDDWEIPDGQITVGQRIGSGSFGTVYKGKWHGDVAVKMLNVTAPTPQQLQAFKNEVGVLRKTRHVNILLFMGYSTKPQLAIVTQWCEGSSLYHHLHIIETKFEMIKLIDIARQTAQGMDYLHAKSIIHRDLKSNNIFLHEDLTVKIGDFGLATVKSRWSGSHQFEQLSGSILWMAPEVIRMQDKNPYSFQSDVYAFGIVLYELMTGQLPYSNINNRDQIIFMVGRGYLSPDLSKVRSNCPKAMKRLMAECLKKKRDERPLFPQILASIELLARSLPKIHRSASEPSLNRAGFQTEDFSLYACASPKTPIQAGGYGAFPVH
Selectivity ratios are calculated by dividing the IC50 B-Raf (nM) by the IC50 LIMK1 (nM).

The test system of assay [3] is Phospho-Ser3-Cofilin/Total Cofilin. In words: Western blot of cellular cofilin phosphorylation status, MV4-11 (II.4). Particulars: Homo sapiens; MV4-11 cells; 2 h treatment. The format is cell-based. The protocol: MV4-11 cell line was originally purchased from the American Type Culture Collection (ATCC). MV4-11 cells are cultured in RPMI 1640 10% (v/v) FBS supplemented with 100 U/mL^−1 penicillin, 0.1 mg·mL^−1 streptomycin (PAN Biotech P06-07100) and 2 mM Glutamine (Sigma-Aldrich 59202C). Cells were maintained at 37° C. with 5% CO2.
(§1) In a 6 wells plate (Falcon 353046), 2·10^6 cells in 1.5 mL medium are treated for 2 h with compounds. Cells are then collected and cell lysis is performed at 4° C. using RIPA buffer supplemented with protease inhibitors cocktail (Sigma-Aldrich P8340) and phosphatase inhibitors cocktail (Sigma-Aldrich P5726). Following centrifugation 30 min 15000 g 4° C., supernatants are mixed with Laemmli buffer and denaturation is performed by heating 5 min 95° C. 10 μL of samples are subjected to electrophoresis on 15% SDS-PAGE. After electro-transfer (Mini Transblot, Bio-Rad), the PVDF membrane (Merck-Millipore Immobilon P IPVH00010) is blocked with Tris Buffered Saline, pH 7.4 (TBS) with 0.1% Tween 20 and 5% BSA for 1 h RT under agitation. The membrane was rinsed 3 times 10 min RT under agitation with TBS, 0.1% Tween-20 (TBST) and then 1 h RT with anti-phospho-Ser3-cofilin (Cell Signaling Technology #3313, 1/1000 dilution) antibody or anti-cofilin (Cell Signaling Technology #3312, 1/1000 dilution) diluted in TBS, 0.1% Tween 20 and 1% BSA. The membrane is then rinsed 3 times 10 min RT under agitation in TBST and incubated for 1 hour with anti-rabbit secondary antibody, horseradish peroxidase conjugated (Jackson Immunoresearch #711-036-152) under agitation at room temperature. After three washes 10 min RT in TBST, the detection of total or phosphorylated cofilin was performed using chemiluminescence kit ECL™ Plus (GE Healthcare RPN2132). For each concentration of compound, ratio between phosphorylated cofilin and total cofilin is determined. This ratio is then expressed as percentage of control ratio (i.e ratio from DMSO treated cells). IC50 is then determined.

Assay [4] has the same test system. In words: Western blot cofilin phosphorylation, MOLM-14. The format is cell-based. Particulars: MOLM-14 cells; 2 h. The protocol: (§2) MOLM-14 cell line was originally purchased from the American Type Culture Collection (ATCC). MOLM-14 cells are cultured in MEM alpha 10% (v/v) FBS supplemented with 100 U/mL^−1 penicillin, 0.1 mg·mL^−1 streptomycin (PAN Biotech P06-07100). Cells were maintained at 37° C. with 5% CO2.
as §1, with “10 min at room temperature under agitation” for “10 min RT under agitation”, “1 h at room temperature with anti-phospho-Ser3-cofilin” for “1 h RT with anti-phospho-Ser3-cofilin”, “for 1 h with anti-rabbit” for “for 1 hour with anti-rabbit”, “10 min at room temperature in TBST,” for “10 min RT in TBST,”, “control ratio (i.e., ratio from” for “control ratio (i.e ratio from”, “cells). IC50 Phospho-Ser3-Cofilin/Total Cofilin is then” for “cells). IC50 is then”
In general terms: In western blotting, separated proteins are transferred to a membrane and probed.

Assay [5] has the same test system. In words: Western blot cofilin phosphorylation, HL-60. The format is cell-based. Particulars: Homo sapiens; HL-60 cells; 2 h. The protocol:
(§3) HL-60 cell line was originally purchased from the Leibniz-Institut Deutsche Sammlung von Mikroorganismen und Zellkulturen GmbH (DSMZ). HL-60 cells are cultured in RPMI 1640 10% (v/v) FBS supplemented with 100 U/mL^−1 penicillin, 0.1 mg·mL^−1 streptomycin (PAN Biotech P06-07100). Cells were maintained at 37° C. with 5% CO2.
as §1, with “10 min at room temperature under agitation” for “10 min RT under agitation”, “1 h at room temperature with anti-phospho-Ser3-cofilin” for “1 h RT with anti-phospho-Ser3-cofilin”, “for 1 h with anti-rabbit” for “for 1 hour with anti-rabbit”, “10 min at room temperature in TBST,” for “10 min RT in TBST,”, “control ratio (i.e., ratio from” for “control ratio (i.e ratio from”, “cells). IC50 Phospho-Ser3-Cofilin/Total Cofilin is then” for “cells). IC50 is then”

The test system is the same in assay [6]. The assay can be described thus: Western blot cofilin phosphorylation, Kasumi-1. The format is cell-based. Particulars: Homo sapiens; Kasumi-1 cells; 2 h. The protocol: Kasumi-1 cell line was originally purchased from the American Type Culture Collection (ATCC). Kasumi-1 cells are cultured in RPMI 1640 20% (v/v) FBS supplemented with 100 U/mL^−1 penicillin, 0.1 mg·mL^−1 streptomycin (PAN Biotech P06-07100). Cells were maintained at 37° C. with 5% CO2.
In a 6 wells plate (Falcon 353046), 2·10^6 cells in 1.5 mL medium are treated for 2 h with compounds. Cells are then collected and cell lysis is performed at 4° C. using RIPA buffer supplemented with protease inhibitors cocktail (Sigma-Aldrich P8340) and phosphatase inhibitors cocktail (Sigma-Aldrich P5726). Following centrifugation 30 min 15000 g 4° C., supernatants are mixed with Laemmli buffer and denaturation is performed by heating 5 min 95° C. 10 μL of samples are subjected to electrophoresis on 15% SDS-PAGE. After electro-transfer (Mini Transblot, Bio-Rad), the PVDF membrane (Merck-Millipore Immobilon P IPVH00010) is blocked with Tris Buffered Saline, pH 7.4 (TBS) with 0.1% Tween 20 and 5% BSA for 1 h RT under agitation. […] For each concentration of compound, ratio between phosphorylated cofilin and total cofilin is determined. This ratio is then expressed as percentage of control ratio (i.e., ratio from DMSO treated cells). IC50 Phospho-Ser3-Cofilin/Total Cofilin is then determined.

The test system is the same in assay [7]. The assay can be described thus: Western blot cofilin phosphorylation, MOLM-13. Format: cell-based. Particulars: MOLM-13 cells; 2 h. The protocol: (§4) MOLM-13 cell line was originally purchased from the Leibniz-Institut Deutsche Sammlung von Mikroorganismen und Zellkulturen GmbH (DSMZ). MOLM-13 cells are cultured in RPMI 1640 20% (v/v) FBS supplemented with 100 U/mL^−1 penicillin, 0.1 mg·mL^−1 streptomycin (PAN Biotech P06-07100). Cells were maintained at 37° C. with 5% CO2.
as §1, with “10 min at room temperature under agitation” for “10 min RT under agitation”, “1 h at room temperature with anti-phospho-Ser3-cofilin” for “1 h RT with anti-phospho-Ser3-cofilin”, “for 1 h with anti-rabbit” for “for 1 hour with anti-rabbit”, “10 min at room temperature in TBST,” for “10 min RT in TBST,”, “control ratio (i.e., ratio from” for “control ratio (i.e ratio from”, “cells). IC50 Phospho-Ser3-Cofilin/Total Cofilin is then” for “cells). IC50 is then”

Assay [8] has as its system P-MEK/Total MEK. In words: Western blot MEK1 phosphorylation, MOLM-14. Particulars: read-out: IC50 P-MEK/Total MEK; MOLM-14 cells; 2 h. The format is cell-based. As for the experimental part: as §2
(§5) In a 6 wells plate (Falcon 353046), 2·10^6 cells in 1.5 mL medium are treated for 2 h with compounds. Cells are then collected and cell lysis is performed at 4° C. using RIPA buffer supplemented with protease inhibitors cocktail (Sigma-Aldrich P8340) and phosphatase inhibitors cocktail (Sigma-Aldrich P5726). Following centrifugation 30 min 15000 g 4° C., supernatants are mixed with Laemmli buffer and denaturation is performed by heating 5 min 95° C. 10 μL of samples are subjected to electrophoresis on 15% SDS-PAGE. After electro-transfer (Mini Transblot, Bio-Rad), the PVDF membrane (Merck-Millipore Immobilon P IPVH00010) is blocked with Tris Buffered Saline, pH 7.4 (TBS) with 0.1% Tween 20 and 5% BSA for 1 h at room temperature under agitation. The membrane was rinsed 3 times 10 min at room temperature under agitation with TBS, 0.1% Tween-20 (TBST) and then 1 h at room temperature with anti-phospho-Ser218/222-MEK1 (Merck-Millipore 07-461, 1/1000 dilution) antibody or anti-MEK1 (Merck-Millipore 07-641, 1/1000 dilution) diluted in TBS, 0.1% Tween 20 and 1% BSA. The membrane is then rinsed 3 times 10 min RT under agitation in TBST and incubated for 1 h with anti-rabbit secondary antibody, horseradish peroxidase conjugated (Jackson Immunoresearch #711-036-152) under agitation at room temperature. After three washes 10 min at room temperature in TBST, the detection of total or phosphorylated cofilin was performed using chemiluminescence kit ECL™ Plus (GE Healthcare RPN2132). For each concentration of compound, ratio between phosphorylated cofilin and total cofilin is determined. This ratio is then expressed as percentage of control ratio (i.e., ratio from DMSO treated cells). IC50 P-MEK/Total MEK is then determined.
(§6) Selectivity ratios are calculated by dividing the IC50 P-MEK/Total MEK value (μM) by the IC50 Phospho-Ser3-Cofilin/Total Cofilin value (μM).

Assay [9] has as its system P-MEK/Total MEK. In words: Western blot MEK1 phosphorylation, HL-60. The format is cell-based. Particulars: Homo sapiens, HL-60, 2 h, read-out: IC50 P-MEK/Total MEK. The protocol:
as §3, §5, §6

Assay [10] relates to P-MEK/Total MEK. In words: Western blot MEK1 phosphorylation, Kasumi-1. Particulars: Homo sapiens, Kasumi 1, 2 h, read-out: IC50 P-MEK/Total MEK. The format is cell-based. As for the experimental part: Cells were maintained at 37° C. with 5% CO2.
as §5, §6

Assay [11] relates to P-MEK/Total MEK. The assay can be described thus: Western blot MEK1 phosphorylation, MOLM-13. Format: cell-based. Particulars: read-out: IC50 P-MEK/Total MEK; MOLM-13 cells; 2 h. As for the experimental part: as §4, §5, §6

For `CC(C)(C)c1nc(-c2cccc(NC(=O)C(=O)c3c(F)cccc3F)c2F)c(-c2ccnc(Nc3ccccc3)n2)s1` [Compound 5, N-(3-(2-(tert-butyl)-5-(2-(phenylamino)pyrimidin-4-yl)thiazol-4-yl)-2-fluorophenyl)-2-(2,6-difluorophenyl)-2-oxoacetamide], the IC50 fell in the range of 100 to 500 nM in [1] (Table 2), 500 to 5000 nM in [1] (Table 8) and 500 to 5000 nM in [2]. In assay [2], the Selectivity ratio was 11.

As for `CCCS(=O)(=O)Nc1cccc(-c2nc(C(C)(C)C)sc2-c2ccnc(Nc3ccccc3)n2)c1F` [Compound 3, N-(3-(2-(tert-butyl)-5-(2-(phenylamino)pyrimidin-4-yl)thiazol-4-yl)-2-fluorophenyl)propane-1-sulfonamide], the IC50 was < 200 nM in assay [3] and 100 to 500 nM in assay [1] (Table 2).

With `CNC(=O)Cc1nc(-c2cccc(NS(=O)(=O)c3c(F)cccc3F)c2F)c(-c2ccnc(Nc3ccccc3)n2)s1` [9 (Na)], the IC50 was < 200 nM in assay [4]; 200 to 1000 nM in assay [5]; 200 to 1000 nM in assay [6]; 200 to 1000 nM in [7]; 200 to 1000 nM in assay [8]; > 1000 nM in assay [9]. Besides, the IC50 in [10] and in assay [11] was > 1000 nM in each case.

As to `CC(C)(C)OC(=O)Nc1cccc(-c2nc(C(C)(C)C)sc2-c2ccnc(Nc3ccccc3)n2)c1F` [Compound 6, tert-butyl (3-(2-(tert-butyl)-5-(2-(phenylamino)pyrimidin-4-yl)thiazol-4-yl)-2-fluorophenyl)carbamate], the IC50 was > 1000 nM in assay [3], 500 to 5000 nM in assay [1] (Table 2) and 500 to 5000 nM in assay [2]. Besides, the Selectivity ratio in assay [2] is given as 16.

Turning to `CC(C)(C)c1nc(-c2cccc(NS(=O)(=O)c3c(F)cccc3F)c2F)c(-c2ncnc3[nH]ccc23)s1` [Compound 7, N-(3-(2-(tert-butyl)-5-(7H-pyrrolo[2,3-d]pyrimidin-4-yl)thiazol-4-yl)-2-fluorophenyl)-2,6-difluorobenzenesulfonamide], the IC50 in [3] lay in the range of 200 to 1000 nM; in [1] (Table 2), 500 to 5000 nM.

With `CC(C)(C)c1nc(-c2cccc(NS(=O)(=O)CCC(F)(F)F)c2F)c(-c2ccnc(Nc3ccccc3)n2)s1` [Compound 4, N-(3-(2-(tert-butyl)-5-(2-(phenylamino)pyrimidin-4-yl)thiazol-4-yl)-2-fluorophenyl)-3,3,3-trifluoropropane-1-sulfonamide], the IC50 lay in the range of 200 to 1000 nM in assay [3] and 100 to 500 nM in assay [1] (Table 2).

Turning to `CC(C)(C)c1nc(-c2cccc(NS(=O)(=O)C3CC3)c2F)c(-c2ccnc(Nc3ccccc3)n2)s1` [Compound 10, N-(3-(2-(tert-butyl)-5-(2-(phenylamino)pyrimidin-4-yl)thiazol-4-yl)-2-fluorophenyl)cyclopropanesulfonamide], in assay [1] (Table 2), the IC50 was 100 to 500 nM.

Turning to `CCOC(=O)Cc1nc(-c2cccc(NS(=O)(=O)c3c(F)cccc3F)c2F)c(-c2ccnc(Nc3ccccc3)n2)s1` [Compound 2, ethyl 2-(4-(3-(2,6-difluorophenylsulfonamido)-2-fluorophenyl)-5-(2-(phenylamino)pyrimidin-4-yl)thiazol-2-yl)acetate], the IC50 in assay [3] was > 1000 nM; in [1] (Table 2) it was < 10 nM; in [2], 10 to 100 nM. In addition, the Selectivity ratio in assay [2] is 4.
